According to ChEMBL document CHEMBL6092166, “Design, synthesis and enzymatic inhibition evaluation of novel 4-hydroxy Pd-C-Ⅲ derivatives as α-glucosidase and PTP1B dual-target inhibitors” (Eur J Med Chem, 2024):
The source made the active and inactive calls. The calls are words filed in the database; no cut-off is given here.

Columns and labels:
[1] = target: T1, Alpha glucosidase (Homo sapiens, UniProt O43451+P10253+P14410+Q2M2H8); experiment: Inhibition of alpha-glucosidase (unknown origin) using p-NPG as substrate preincubated for 15 mins followed by substrate addition for 30 mins by absorbance based analysis; assay type: protein assay
[2] = target: T1, Alpha glucosidase; experiment: Inhibition of alpha-glucosidase (unknown origin) activity assessed as disruption of secondary structure by measuring random coil content at 50 uM by Circular dichroism spectra analysis (reference value: 27.1%); assay type: protein assay; set-up: scale not given: the % may be the effect or the level left
[3] = target: T1, Alpha glucosidase; experiment: Binding affinity to alpha-glucosidase (unknown origin) assessed as collision quenching by fluorescence based analysis; assay type: protein assay
[4] = target: T1, Alpha glucosidase; experiment: Binding affinity to alpha-glucosidase (unknown origin) using p-NPG as substrate assessed as enzyme-substrate complex inhibition constant at 0 to 20 uM incubated for 15 mins by Lineweaver-Burk double reciprocal plot analysis; assay type: protein assay; details: dose 0-20 µM
[5] = target: T1, Alpha glucosidase; experiment: Inhibition of alpha-glucosidase (unknown origin) activity assessed as disruption of secondary structure by measuring alpha-helix content at 30 uM by Circular dichroism spectra analysis (reference value: 40.0%); assay type: protein assay; set-up: scale not given: the % may be the effect or the level left
[6] = target: T1, Alpha glucosidase; experiment: Binding affinity to alpha-glucosidase (unknown origin) assessed as Stem-Volmer quenching constant by fluorescence based analysis; assay type: protein assay
[7] = target: T2, Tyrosine-protein phosphatase non-receptor type 1 (Homo sapiens) (UniProt P18031); experiment: Inhibition of PTP1B (unknown origin) in human HepG2 cells assessed as downregulation of PTP1B protein level at 50 uM at 40 to 60 degreeC incubated for 6 hrs by Western blot based Cellular thermal shift assay; assay type: cell-based
T2 sequence (whole entry): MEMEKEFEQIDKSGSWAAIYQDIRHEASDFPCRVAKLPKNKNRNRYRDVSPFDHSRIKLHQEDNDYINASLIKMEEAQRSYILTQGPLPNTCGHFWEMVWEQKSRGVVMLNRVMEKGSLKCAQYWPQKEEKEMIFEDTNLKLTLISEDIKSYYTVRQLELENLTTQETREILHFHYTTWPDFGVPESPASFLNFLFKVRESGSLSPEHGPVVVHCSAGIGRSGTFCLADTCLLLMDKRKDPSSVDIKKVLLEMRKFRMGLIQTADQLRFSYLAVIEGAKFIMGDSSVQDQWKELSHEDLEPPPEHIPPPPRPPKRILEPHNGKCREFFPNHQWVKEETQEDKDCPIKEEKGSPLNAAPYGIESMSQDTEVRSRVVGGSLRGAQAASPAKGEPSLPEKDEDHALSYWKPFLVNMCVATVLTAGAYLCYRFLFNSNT

[8] = target: T1, Alpha glucosidase; experiment: Inhibition of alpha-glucosidase (unknown origin) activity assessed as disruption of secondary structure by measuring random coil content at 40 uM by Circular dichroism spectra analysis (reference value: 27.1%); assay type: protein assay; set-up: scale not given: the % may be the effect or the level left
[9] = target: T1, Alpha glucosidase; experiment: Mixed inhibition of alpha-glucosidase (unknown origin) using p-NPG as substrate at 0 to 20 uM incubated for 15 mins by Lineweaver-Burk double reciprocal plot analysis; assay type: protein assay; details: dose 0-20 µM
[10] = target: T1, Alpha glucosidase; experiment: Inhibition of alpha-glucosidase (unknown origin) activity assessed as disruption of secondary structure by measuring beta-turn content at 30 uM by Circular dichroism spectra analysis (reference value: 15.8%); assay type: protein assay; set-up: scale not given: the % may be the effect or the level left
[11] = target: T1, Alpha glucosidase; experiment: Inhibition of alpha-glucosidase (unknown origin) activity assessed as disruption of secondary structure by measuring beta-turn content at 50 uM by Circular dichroism spectra analysis (reference value: 15.8%); assay type: protein assay; set-up: scale not given: the % may be the effect or the level left
[12] = target: T1, Alpha glucosidase; experiment: Inhibition of alpha-glucosidase (unknown origin) activity assessed as disruption of secondary structure by measuring beta-sheet content at 50 uM by Circular dichroism spectra analysis (reference value: 13.9%); assay type: protein assay; set-up: scale not given: the % may be the effect or the level left
[13] = target: T1, Alpha glucosidase; experiment: Inhibition of alpha-glucosidase (unknown origin) activity assessed as disruption of secondary structure by measuring beta-sheet content at 30 uM by Circular dichroism spectra analysis (reference value: 13.9%); assay type: protein assay; set-up: scale not given: the % may be the effect or the level left
[14] = target: T1, Alpha glucosidase; experiment: Mixed inhibition of alpha-glucosidase (unknown origin) using p-NPG as substrate assessed as increased in Km and decreased in Vmax at 0 to 20 uM incubated for 15 mins by Lineweaver-Burk double reciprocal plot analysis; assay type: protein assay; details: dose 0-20 µM
[15] = target: T1, Alpha glucosidase; experiment: Inhibition of alpha-glucosidase (unknown origin) activity assessed as disruption of secondary structure by measuring beta-turn content at 40 uM by Circular dichroism spectra analysis (reference value: 15.8%); assay type: protein assay; set-up: scale not given: the % may be the effect or the level left
[16] = target: T3, Tyrosine-protein phosphatase non-receptor type 1 (Homo sapiens, UniProt P18031); experiment: Inhibition of PTP1B (unknown origin)
T3 sequence (P18031 whole entry): T2 sequence (whole entry)

[17] = target: T1, Alpha glucosidase; experiment: Binding affinity to alpha-glucosidase (unknown origin) assessed as association constant by fluorescence based analysis; assay type: protein assay
[18] = target: T1, Alpha glucosidase; experiment: Inhibition of alpha-glucosidase (unknown origin) activity assessed as disruption of secondary structure by measuring beta-sheet content at 10 uM by Circular dichroism spectra analysis (reference value: 13.9%); assay type: protein assay; set-up: scale not given: the % may be the effect or the level left
[19] = target: T1, Alpha glucosidase; experiment: Binding affinity to alpha-glucosidase (unknown origin) using p-NPG as substrate assessed as free inhibition constant at 0 to 20 uM incubated for 15 mins by Lineweaver-Burk double reciprocal plot analysis; assay type: protein assay
[20] = target: T1, Alpha glucosidase; experiment: Binding affinity to alpha-glucosidase (unknown origin) by fluorescence based analysis; assay type: protein assay
[21] = target: T1, Alpha glucosidase; experiment: Binding affinity to alpha-glucosidase (unknown origin) assessed as decreased fluorescence intensity by measuring peak 1 (lamda ex/lamda em: 315/375 nm) and peak 2 ((lamda ex/lamda em: 225/395 nm) by 3D fluorescence spectra analysis; assay type: protein assay
[22] = target: T1, Alpha glucosidase; experiment: Inhibition of alpha-glucosidase (unknown origin) activity assessed as disruption of secondary structure by measuring alpha-helix content at 40 uM by Circular dichroism spectra analysis (reference value: 40.0%); assay type: protein assay; set-up: scale not given: the % may be the effect or the level left
[23] = target: T1, Alpha glucosidase; experiment: Inhibition of alpha-glucosidase (unknown origin) activity assessed as disruption of secondary structure by measuring alpha-helix content at 10 uM by Circular dichroism spectra analysis (reference value: 40.0%); assay type: protein assay; set-up: scale not given: the % may be the effect or the level left
[24] = target: T1, Alpha glucosidase; experiment: Binding affinity to alpha-glucosidase (unknown origin) assessed as fluorescence intensity at 12.5 uM by fluorescence based analysis (reference value: 313.09); assay type: protein assay
[25] = system: Mus musculus; experiment: Reduction in blood glucose concentration in male Kunming mouse at 20 mg/kg preadministered for 40 mins and measured after 120 mins by sucrose loading test; assay type: functional, organism-based
[26] = system: Mus musculus; experiment: Reduction in blood glucose concentration in male Kunming mouse assessed as decrease in glucose AUC at 20 mg/kg preadministered for 40 mins and measured after 120 mins by sucrose loading test relative to control; assay type: functional, organism-based
[27] = Cytotoxicity against human HEK293 cells assessed as cell survival at 250 uM incubated for 24 hrs by MTT assay; assay type: toxicity, cell-based; details: read-out: Survival
[28] = target: T1, Alpha glucosidase; experiment: Inhibition of alpha-glucosidase (unknown origin) activity assessed as disruption of secondary structure by measuring random coil content at 10 uM by Circular dichroism spectra analysis (reference value: 27.1%); assay type: protein assay; set-up: scale not given: the % may be the effect or the level left
[29] = target: T1, Alpha glucosidase; experiment: Inhibition of alpha-glucosidase (unknown origin) activity assessed as disruption of secondary structure by measuring alpha-helix content at 50 uM by Circular dichroism spectra analysis (reference value: 40.0%); assay type: protein assay; set-up: scale not given: the % may be the effect or the level left
[30] = target: T1, Alpha glucosidase; experiment: Binding affinity to alpha-glucosidase (unknown origin) assessed as quenching constant by fluorescence based analysis; assay type: protein assay
[31] = target: T1, Alpha glucosidase; experiment: Inhibition of alpha-glucosidase (unknown origin) activity assessed as disruption of secondary structure by measuring beta-turn content at 10 uM by Circular dichroism spectra analysis (reference value: 15.8%); assay type: protein assay; set-up: scale not given: the % may be the effect or the level left
[32] = target: T1, Alpha glucosidase; experiment: Inhibition of alpha-glucosidase (unknown origin) activity assessed as disruption of secondary structure by measuring random coil content at 30 uM by Circular dichroism spectra analysis (reference value: 27.1%); assay type: protein assay; set-up: scale not given: the % may be the effect or the level left
[33] = target: T1, Alpha glucosidase; experiment: Inhibition of alpha-glucosidase (unknown origin) activity assessed as disruption of secondary structure by measuring beta-sheet content at 40 uM by Circular dichroism spectra analysis (reference value: 13.9%); assay type: protein assay; set-up: scale not given: the % may be the effect or the level left
[34] = Inhibition of alpha-amylase (unknown origin); set-up: species or system Homo sapiens
[35] = target: T3, Tyrosine-protein phosphatase non-receptor type 1; experiment: Inhibition of PTP1B (unknown origin) using pNPP as substrate preincubated for 10 mins followed by substrate addition for 20 mins by absorbance based analysis
[36] = target: T1, Alpha glucosidase; experiment: Inhibition of alpha-glucosidase (unknown origin) using p-NPG as substrate incubated for 15 mins by spectrophotometric analysis; assay type: protein assay

## O=C(/C=C/c1cccc(Cl)c1)OCCOc1ccc2ccc(=O)oc2c1
[1]
  IC50: > 300 µM

## O=C(/C=C/c1ccccc1Cl)OCCOc1ccc2ccc(=O)oc2c1
[1]
  IC50: 258.7 µM

## O=C(OCCOc1ccc2ccc(=O)oc2c1)c1ccc(Cl)cc1Cl
[1]
  IC50: 99 µM

## O=C(/C=C/c1ccccc1[N+](=O)[O-])OCCOc1ccc2ccc(=O)oc2c1
[1]
  IC50: 299.7 µM

## O=C(/C=C/c1ccc(Cl)cc1Cl)OCCCOc1ccc2ccc(=O)oc2c1
[1]
  IC50: > 300 µM

## Cc1c(C)c2c(C)cc(OCCOC(=O)/C=C/c3ccc(Cl)cc3Cl)cc2oc1=O
[2]
  Activity: 36.3%
[3]
  K: 2 10^10L/mol/s
[4]
  Kis: 0.17 µM
[5]
  Activity: 32.2%
[6]
  KSV: 9.7 10^4L/mol
[7]
  inhibition: Active
[8]
  Activity: 35.4%
[9]
  inhibition: Active; Intersection In Second Quadrant Of Double Reciprocal Graph Observed; Compound Binds To Free Enzyme And Enzyme-Substrate Complex
[10]
  Activity: 17.1%
[11]
  Activity: 18%
[12]
  Activity: 20.9%
[13]
  Activity: 17.9%
[14]
  inhibition: Active
[15]
  Activity: 17.8%
[16]
  IC50: 47 µM
[17]
  ka: 2.09 10^3L/mol
[18]
  Activity: 15.3%
[19]
  Ki: 0.25 µM
[20]
  Activity: Active; Wavelength Of Maximum Emission Peak Red Shifted From 335 Nm To 340 Nm
[21]
  inhibition: Active; Peak 1 Reflected The Absorption Peak Of Tyrosine Residues And Tryptophan Residues And Peak 2 Was Fluorescence Feature Of Polypeptide Backbone Structure
[22]
  Activity: 28.3%
[23]
  Activity: 37.1%
[24]
  Flu intensity: 144
[25]
  Activity: Active
[26]
  Activity: Active
[27]
  viability at 24 h, 250 µM: 81.8%
[28]
  Activity: 29.1%
[29]
  Activity: 27.6%
[30]
  Kq: 9.7 10^12L/mol/s
[31]
  Activity: 16.3%
[32]
  Activity: 32.7%
[33]
  Activity: 20.2%
[1]
  IC50: 66.3 µM
[34]
  IC50: 30.6 µM

## O=C(/C=C/c1ccc(Cl)cc1Cl)OCCOc1ccc2ccc(=O)oc2c1
[1]
  IC50: 116.5 µM

## CC(C)=CC(=O)O[C@@H]1c2cc3ccc(=O)oc3cc2OC(C)(C)[C@H]1OC(=O)C=C(C)C
[35]
  IC50: 11.2 µM
[36]
  IC50: 79.1 µM

## CC(C)c1cc2cc3ccc(=O)oc3cc2o1
[35]
  IC50: 10.8 µM
[36]
  IC50: 85.8 µM

## O=C(O)c1cc2ccc(=O)oc2cc1O
[35]
  IC50: 8 µM
[36]
  IC50: 172.1 µM

## COc1ccc(/C=C/C(=O)OCCOc2ccc3ccc(=O)oc3c2)cc1Br
[1]
  IC50: 286.2 µM

## O=C(/C=C/c1ccccc1)OCCOc1ccc2ccc(=O)oc2c1
[1]
  IC50: 235.6 µM

## CCN(CC)c1ccc(/C=C/C(=O)OCCOc2ccc3ccc(=O)oc3c2)cc1
[1]
  IC50: > 300 µM

## COc1cc(/C=C/C(=O)OCCOc2ccc3ccc(=O)oc3c2)ccc1O
[1]
  IC50: > 300 µM

## Cc1cc(=O)oc2c(C)c(OCCOC(=O)/C=C/c3ccc(Cl)cc3Cl)ccc12
[1]
  IC50: > 300 µM

## CO[C@@H]1c2cc3ccc(=O)oc3cc2OC(C)(C)[C@H]1OC(=O)C=C(C)C
[35]
  IC50: 6.6 µM
[36]
  IC50: 89.2 µM
